In patent US20220289685A1, “ANTIMALARIAL HEXAHYDROPYRIMIDINE ANALOGUES” (UCB BIOPHARMA SRL, priority 2019, published 2022):
Counter-ions that a name gives are not always drawn.

test system: Plasmodium falciparum 3D7 strain; test: P. falciparum 3D7 asexual blood stage assay (SYBR green readout); assay type: cell-based; details: Plasmodium falciparum, 3D7, Erythrocyte, 72 h
Experimental: Asexual Blood Stage Assay
The assay used to measure the effect of test compounds on a bloodstream stage of Plasmodium falciparum: 3D7 strain employs SYBR green as the readout. This is a dye that binds to double stranded deoxyribonucleic acid (DNA) with a resulting increase in fluorescence, allowing detection of P. falciparum DNA in infected erythrocytes, and thereby providing a measure of parasite growth and propagation.
P. falciparum Culture Maintenance
Erythrocytes (A+ blood) were prepared for both parasite culture and assay by washing 4 times with incomplete media (15.9 g RPMI 1640 (25 mM HEPES, L-glutamine), 1 g NaHCO3, 2 g glucose, 400 μL gentacin (500 mg/mL), 2 mL hypoxanthine solution (13.6 g/L in 0.1M NaOH pH 7.3) in 1 litre of media). The cells were centrifuged at 1800 g for 5 minutes, before decanting the supernatant and re-suspending in fresh incomplete media. On the final wash, the cells were re-suspended in complete media (incomplete media with 5 g/L AlbumaxII), and centrifuged at 1800 g for 3 minutes. This cell sediment was treated as 100% haematocrit.
P. falciparum 3D7 was cultured in erythrocytes at 5% haematocrit in complete media at 37° C. (1% O2, 3% CO2, balance N2). Cultures were split on a weekly basis to achieve a 1% parasitaemia in erythrocites at 5% haematocrit in fresh media. Culture media is replaced by fresh media every other day (2 times during the week).
On day 1, test compounds were added to assay plates using Echo dispensing technology ([…] and 20 points titration). 50 nL of each compound dilution was added to 50 μL of culture (5% haematocrit, 0.5% parasitaemia) and incubated for 72 h at 37° C. (1% O2, 3% CO2, balance N2). Final concentrations of test compounds ranged from 50,000 nM to 15 nM, in […].
On day 4, 10 μL SYBR green (Invitrogen S7563 supplied as 10,000× concentrate in DMSO) pre-diluted to 3× concentrate with Lysis buffer (20 mM Tris pH 7.9, 5% EDTA, 0.16% w/v, 1.6% TX100 v/v) was added to the cultures and incubated in the dark, overnight, at room temperature.
On day 5, fluorescent signal was measured using a BioTek plate reader (excitation 485 nm, emission 528 nm). All data were processed using IDBS ActivityBase. Raw data were converted into percent inhibition through linear regression by setting the high inhibition control (mefloquine) as 100% and the no inhibition control (DMSO) as 0%. Quality control criteria for passing plates were as follows: Z′>0.5, S:B>3, 30% CV(no inhibition control)<15. The formula used to calculate Z′ is: […]
All EC50 curve fitting was undertaken using the following bi-phasic two site dose response using XLfit model 300 (IDBS):
where A=100 minus the top of the upper curve 1 and the bottom of lower curve; B=Hill slope; log(C)=IC50 concentration at lower site; log(D)=IC50 concentration at upper site; x=inhibitor concentration; and y=% inhibition.

| SMILES | IC50 [µM] |
| --- | --- |
| C[C@@H]1C[C@H](N2C(=N)N[C@](C)(c3cccc(NC(=O)c4cc(Cl)c(F)cc4F)c3Cl)CC2=O)CCO1 (relative stereo) [Example 69, 5-Chloro-N-(2-chloro-3-{(4S)-2-imino-4-methyl-1-[(2R*,4R*)-2-methyltetrahydropyran-4-yl]-6-oxo-hexahydropyrimidin-4-yl}phenyl)-2,4-difluorobenzamide hydrochloride] | 0.025 |
| C[C@@H]1C[C@H](N2C(=N)N[C@](C)(c3cccc(NC(=O)c4cnc5cccnc5c4)c3Cl)CC2=O)CCO1 (relative stereo) [Example 52, N-(2-Chloro-3-{(4S)-2-imino-4-methyl-1-[(2R*,4R*)-2-methyl-tetrahydropyran-4-yl]-6-oxo-hexahydropyrimidin-4-yl}phenyl)-1,5-naphthyridine-3-carboxamide trifluoroacetic acid salt] | 0.115 |
| C[C@@H]1C[C@H](N2C(=N)N[C@](C)(c3cccc(NC(=O)c4cccc(C#N)n4)c3Cl)CC2=O)CCO1 (relative stereo) [Example 72, N-(2-Chloro-3-{(4S)-2-imino-4-methyl-1-[(2R*,4R*)-2-methyl-tetrahydropyran-4-yl]-6-oxo-hexahydropyrimidin-4-yl}phenyl)-6-cyanopyridine-2-carboxamide hydrochloride] | 0.014 |
| C[C@@H]1C[C@H](N2C(=N)N[C@](C)(c3cccc(NC(=O)c4ccc(C#N)cc4)c3Cl)CC2=O)CCO1 (relative stereo) [Example 10, N-(2-Chloro-3-{(4S)-2-imino-4-methyl-1-[(2R*,4R*)-2-methyl-tetrahydropyran-4-yl]-6-oxo-hexahydropyrimidin-4-yl]phenyl)-4-cyanobenzamide hydrochloride] | 0.29 |
| C[C@@H]1C[C@H](N2C(=N)N[C@](C)(c3cccc(NC(=O)c4ncc(Cl)cn4)c3Cl)CC2=O)CCO1 (relative stereo) [Example 92, 5-Chloro-N-(2-chloro-3-{(4S)-2-imino-4-methyl-1-[(2R*,4R*)-2-methyltetrahydropyran-4-yl]-6-oxo-hexahydropyrimidin-4-yl]phenyl)-pyrimidine-2-carboxamide hydrochloride] | 0.028 |
| C[C@@H]1C[C@H](N2C(=N)N[C@](C)(c3cccc(NC(=O)c4ccc(F)c(F)c4)c3Cl)CC2=O)CCO1 (relative stereo) [Example 36, N-(2-Chloro-3-{(4S)-2-imino-4-methyl-1-[(2R*,4R*)-2-methyl-tetrahydropyran-4-yl]-6-oxo-hexahydropyrimidin-4-yl]phenyl)-3,4-difluorobenzamide trifluoroacetic acid salt] | 0.033 |

same assay, conditions: Plasmodium falciparum, Erythrocyte; P. falciparum 3D7 in human erythrocytes, 72 h incubation, SYBR green fluorescence; read-out: IC50

| IC50 [µM] | SMILES |
| --- | --- |
| 0.085 | C[C@@H]1C[C@H](N2C(=N)N[C@](C)(c3cccc(NC(=O)c4c(F)cc(F)cc4F)c3Cl)CC2=O)CCO1 (relative stereo) [Example 101, N-(2-Chloro-3-{(4S)-2-imino-4-methyl-1-[(2,R*,4R*)-2-methyl-tetrahydropyran-4-yl]-6-oxo-hexahydropyrimidin-4-yl]phenyl)-2,4,6-trifluorobenzamide hydrochloride] |
| 0.122 | C[C@@H]1C[C@H](N2C(=N)N[C@](C)(c3cccc(NC(=O)c4ncn5ccccc45)c3Cl)CC2=O)CCO1 (relative stereo) [Example 60, N-(2-Chloro-3-{(4S)-2-imino-4-methyl-1-[(2,R*,4R*)-2-methyl-tetrahydropyran-4-yl]-6-oxo-hexahydropyrimidin-4-yl}phenyl)-imidazo[1,5-a]pyridine-1-carboxamide hydrochloride] |
| 0.707 | C[C@@H]1C[C@H](N2C(=N)N[C@](C)(c3cccc(NC(=O)c4ccc[n+]([O-])c4)c3Cl)CC2=O)CCO1 (relative stereo) [Example 112, N-(2-Chloro-3-{(4S)-2-imino-4-methyl-1-[(2R*,4R*)-2-methyl-tetrahydropyran-4-yl]-6-oxo-hexahydropyrimidin-4-yl]phenyl)-1-oxidopyridin-1-ium-3-carboxamide hydrochloride] |
